Reference: the CheMixHub viscosity set
Values joined by “and” are separate entries in the source; they are usually repeats but may differ in a detail not shown here. Equal entries are not always repeated. ± gives the uncertainty stated by the source.

Experiment: xn = mol fraction of the nth substance listed

CCCCOC(C)=O + CCCCCCCCO
viscosity [mPa·s], 101 kPa
Conditions | x2 = 0.085 | x2 = 0.1729 | x2 = 0.2638 | x2 = 0.3579 | x2 = 0.4554 | x2 = 0.5564 | x2 = 0.6611 | x2 = 0.7698 | x2 = 0.8827
298.15 K | 0.884 ± 0.053 | 1.13 ± 0.068 | – | 1.808 ± 0.11 | 2.27 ± 0.14 | 2.845 ± 0.17 | 3.578 ± 0.22 | 4.535 ± 0.27 | 5.81 ± 0.35
303.15 K | 0.813 ± 0.049 | 1.03 ± 0.062 | 1.298 ± 0.078 | 1.623 ± 0.098 | 2.017 ± 0.12 | 2.505 ± 0.15 | 3.119 ± 0.19 | 3.918 ± 0.24 | 4.98 ± 0.3
308.15 K | 0.748 ± 0.045 | 0.938 ± 0.057 | 1.171 ± 0.071 | 1.453 ± 0.088 | 1.789 ± 0.11 | 2.197 ± 0.13 | 2.71 ± 0.16 | 3.378 ± 0.2 | 4.252 ± 0.26
313.15 K | 0.689 ± 0.042 | 0.855 ± 0.052 | 1.059 ± 0.064 | 1.305 ± 0.079 | 1.591 ± 0.096 | 1.938 ± 0.12 | 2.372 ± 0.14 | 2.932 ± 0.18 | 3.66 ± 0.22

CCCN + CCCCCCCCO
viscosity [mPa·s], 101.33 kPa
Conditions | x1 = 0.1005 | x1 = 0.1898 | x1 = 0.3064 | x1 = 0.385 | x1 = 0.4834 | x1 = 0.5835 | x1 = 0.6813 | x1 = 0.7916 | x1 = 0.8908
303.15 K | 4.988 ± 0.03 | 4.15 ± 0.025 | 3.23 ± 0.019 | 2.689 ± 0.016 | 2.107 ± 0.013 | 1.601 ± 0.0099 | 1.182 ± 0.0074 | 0.8056 ± 0.0053 | 0.5464 ± 0.004
313.15 K | 3.651 ± 0.023 | 3.052 ± 0.019 | 2.37 ± 0.015 | 1.976 ± 0.012 | 1.563 ± 0.0098 | 1.203 ± 0.0077 | 0.9234 ± 0.006 | 0.6649 ± 0.0046 | 0.4703 ± 0.0037

CCCCCCCC[N+](C)(C)CCOCCO.Cc1cc(Cl)ccc1OCC(=O)[O-] + CCCCCCCC[N+](C)(C)CCOCCO.COc1c(Cl)ccc(Cl)c1C(=O)[O-]
100 kPa, x1 = 0.58
Conditions | viscosity
293.15 K | 12650 ± 4400 mPa·s and 12650 ± 970 mPa·s
303.15 K | 4260 ± 280 mPa·s
313.15 K | 1780 ± 94 mPa·s
323.15 K | 831.5 ± 37 mPa·s

CN1CCCN(C)C1=O + CCCCCCCCn1cc[n+](C)c1.[Cl-]
308.15 K, 100 kPa
Conditions | viscosity [mPa·s]
x2 = 0.0999 | 7.275 ± 0.31
x2 = 0.2997 | 61.15 ± 2.6

CCCN + CCCCCCCO
viscosity [mPa·s], 101.33 kPa
Conditions | x1 = 0.0918 | x1 = 0.1876 | x1 = 0.2917 | x1 = 0.3927 | x1 = 0.4818 | x1 = 0.6142 | x1 = 0.7167 | x1 = 0.7997 | x1 = 0.9056
303.15 K | 4.047 ± 0.025 | 3.35 ± 0.02 | 2.669 ± 0.016 | 2.114 ± 0.013 | 1.687 ± 0.01 | 1.177 ± 0.0074 | 0.8748 ± 0.0057 | 0.678 ± 0.0046 | 0.4813 ± 0.0037
313.15 K | 3.046 ± 0.019 | 2.522 ± 0.016 | 2.023 ± 0.013 | 1.593 ± 0.01 | 1.28 ± 0.0081 | 0.9105 ± 0.0059 | 0.6933 ± 0.0047 | 0.5549 ± 0.0041 | 0.4105 ± 0.0034

CN1CCCN(C)C1=O + CCCCCCn1cc[n+](C)c1.[Cl-]
100 kPa
Conditions | viscosity [mPa·s]
298.15 K, x2 = 0.3083 | 45.85 ± 1.9
308.15 K, x2 = 0.3981 | 63.85 ± 2.7
